Legend:
[1] = biological target: Recombinant BRD4 (44-168) protein (Homo sapiens (Human), UniProt O60885); assay: BRD4-H4KAc4 binding assay (amplified luminescence proximity homogeneous assay, AlphaScreen); details: 10 uM
Experimental: In order to evaluate BRD4 inhibitory activity of the present compounds, BRD4-H4KAc4 binding assay was carried out by an amplified luminescence proximity homogeneous assay. The specific method is described below.
H4KAc4 peptide (available from Toray Research Center, Inc., sequence SGRGK(Ac)GGK(Ac)GLGK(Ac)GGAK(Ac)RHR-K(Biotin)-NH2) was dissolved in 1×Assay buffer to prepare 1 mM H4KAc4 peptide stock solution.
N-terminal His tag/C-terminal FLAG tag-fused type Recombinant BRD4 (44-168) protein (available from Active Motif, Cat No. 31380) was diluted with 1×Assay buffer to 1,250-fold to prepare 250 nM BRD4 solution.
1% DMSO solution (control) and 2 μL of each compound solution in each concentration were added to each well of AlphaPlate-384 (from PerkinElmer, Cat No. 6008350). Next, 2 μL of 250 nM BRD4 solution was added to each well of AlphaPlate-384. Further, 2 μL of 250 nM H4KAc4 peptide solution was added to each well of AlphaPlate-384. After addition of the 250 nM H4KAc4 peptide solution, the mixture was allowed to stand at room temperature under light shielding for 60 minutes, and 4 μL of AlphaScreen beads were added to each well of AlphaPlate-384. After addition of the AlphaScreen beads, the mixture was allowed to stand at room temperature under light shielding for 60 minutes, emission at 520-620 nm upon excitation at 680 nm was detected by EnVision multilabel counter (from PerkinElmer), and binding of BRD4 and H4KAc4 was detected. Incidentally, the evaluation of each compound was carried out in duplicate (2 well per 1 compound).
(§1) The BRD4 inhibition rate (%) was calculated by the following equation using Microsoft EXCEL 2010. BRD4 inhibition rate (%)=100−{(luminescence intensity average value of each compound added well)−(average value of luminescence intensity of blank well))/(average value of luminescence intensity of control well)−(average value of luminescence intensity of blank well)}×100

NF-κB = NF-κB reporter gene assay (TNF-α stimulated A549/NF-κB-luc cells); assay type: cell-based; details: Homo sapiens, TNF-α stimulation
Experimental: In order to evaluate NF-κB inhibitory activity of the present compounds, NF-κB reporter gene assay was carried out. The specific method is described below.
Gene recombinant human TNF-α (available from R&D systems, Cat No. 210-TA) was dissolved in D-PBS(−) (available from Wako Pure Chemical Industries, Ltd., Cat No. 293-72601) to prepare 100 μg/mL of TNF-α solution stock solution. 100 μg/mL of the TNF-α solution stock solution was diluted with the culture medium to prepare 10 ng/mL of TNF-α solution.
A549/NF-κB-luc cells (available from Panomics, Cat No. LR0051) were prepared at 375,000 cells/mL in the culture medium. The 375,000 cells/mL A549/NF-κB-luc cell suspension was seeded at 80 μL each on a white 96-well plate (available from Greiner, Cat No. 655073). One hour after seeding the cells, 10 μL of 2% DMSO solution (control) and each compound solution in each concentration were added to each well of the 96-well plate. One hour after the addition of each compound solution, 10 ng/mL of the TNF-α solution (10 μL) was added to each well of the 96-well plate. Three hours after the addition of 10 ng/mL of the TNF-α solution, 100 μL of Steady-Glo reagent (available from Promega, Cat No. E2510) was added to each well of the 96-well plate. After 30 to 90 minutes of the addition of the Steady-Glo reagent, the luminescence intensity of each well was detected by EnVision multilabel counter (available from PerkinElmer).
as §1, with “NF-κB” for “The BRD4”, “NF-κB” for “BRD4”, “well)}×100 In addition, IC50 values were calculated from the calculated NF-κB inhibition rate (%) using curve fitting software XLfit (available from IDBS).” for “well)}×100”

Row | Compound | inhibition at 10 µM [1] [%] | IC50 (NF-κB) [nM]
1 | Cc1sc2c(c1C)C(c1ccc(Cl)cc1)=NN(Cc1ccccc1)c1nnc(C)n1-2 [Example 3, 6-benzyl-4-(4-chlorophenyl)-2,3,9-trimethyl-6H-thieno[2,3-e][1,2,4]triazolo[3,4-c][1,2,4]triazepine] | 100 | 51.9
2 | COc1cccc(CN2N=C(c3ccc(Cl)cc3)c3c(sc(C)c3C)-n3c(C)nnc32)c1 [Example 6, 4-(4-chlorophenyl)-6-(3-methoxybenzyl)-2,3,9-trimethyl-6H-thieno[2,3-e][1,2,4]triazolo[3,4-c][1,2,4]triazepine] | 100 | 86.4
3 | Cc1sc2c(c1C)C(c1ccc(Cl)cc1)=NN(Cc1ccc(C(C)(C)C)cc1)c1nnc(C)n1-2 [Example 7, 6-(4-(tert-butyl)benzyl)-4-(4-chlorophenyl)-2,3,9-trimethyl-6H-thieno[2,3-e][1,2,4]triazolo[3,4-c][1,2,4]triazepine] | 99.8 | 735
4 | Cc1sc2c(c1C)C(c1ccc(Cl)cc1)=NN(Cc1ccccc1F)c1nnc(C)n1-2 [Example 8, 4-(4-chlorophenyl)-6-(2-fluorobenzyl)-2,3,9-trimethyl-6H-thieno[2,3-e][1,2,4]triazolo[3,4-c][1,2,4]triazepine] | 100 | 104
5 | Cc1sc2c(c1C)C(c1ccc(Cl)cc1)=NN(Cc1cccc(F)c1)c1nnc(C)n1-2 [Example 9, 4-(4-chlorophenyl)-6-(3-fluorobenzyl)-2,3,9-trimethyl-6H-thieno[2,3-e][1,2,4]triazolo[3,4-c][1,2,4]triazepine] | 100 | 17.6
6 | Cc1sc2c(c1C)C(c1ccc(Cl)cc1)=NN(Cc1ccccc1Cl)c1nnc(C)n1-2 [Example 10, 6-(2-chlorobenzyl)-4-(4-chlorophenyl)-2,3,9-trimethyl-6H-thieno[2,3-e][1,2,4]triazolo[3,4-c][1,2,4]triazepine] | 100 | 192
7 | Cc1ccccc1CN1N=C(c2ccc(Cl)cc2)c2c(sc(C)c2C)-n2c(C)nnc21 [Example 11, 4-(4-chlorophenyl)-2,3,9-trimethyl-6-(2-methylbenzyl)-6H-thieno[2,3-e][1,2,4]triazolo[3,4-c][1,2,4]triazepine] | 100 | 291
8 | Cc1cccc(CN2N=C(c3ccc(Cl)cc3)c3c(sc(C)c3C)-n3c(C)nnc32)c1 [Example 12, 4-(4-chlorophenyl)-2,3,9-trimethyl-6-(3-methylbenzyl)-6H-thieno[2,3-e][1,2,4]triazolo[3,4-c][1,2,4]triazepine] | 100 | 32.1
9 | Cc1ccc(CN2N=C(c3ccc(Cl)cc3)c3c(sc(C)c3C)-n3c(C)nnc32)cc1 [Example 13, 4-(4-chlorophenyl)-2,3,9-trimethyl-6-(4-methylbenzyl)-6H-thieno[2,3-e][1,2,4]triazolo[3,4-c][1,2,4]triazepine] | 100 | 233
10 | Cc1sc2c(c1C)C(c1ccc(Cl)cc1)=NN(Cc1ccc(C(F)(F)F)cc1)c1nnc(C)n1-2 [Example 14, 4-(4-chlorophenyl)-2,3,9-trimethyl-6-(4-(trifluoromethyl)benzyl)-6H-thieno[2,3-e][1,2,4]triazolo[3,4-c][1,2,4]triazepine] | 100 | 276
11 | Cc1sc2c(c1C)C(c1ccc(Cl)cc1)=NN(Cc1cccc(Cl)c1)c1nnc(C)n1-2 [Example 16, 6-(3-chlorobenzyl)-4-(4-chlorophenyl)-2,3,9-trimethyl-6H-thieno[2,3-e][1,2,4]triazolo[3,4-c][1,2,4]triazepine] | 100 | 77.5
12 | Cc1sc2c(c1C)C(c1ccc(Cl)cc1)=NN(Cc1cccc(C(F)(F)F)c1)c1nnc(C)n1-2 [Example 18, 4-(4-chlorophenyl)-2,3,9-trimethyl-6-(3-(trifluoromethyl)benzyl)-6H-thieno[2,3-e][1,2,4]triazolo[3,4-c][1,2,4]triazepine] | 100 | 144
13 | Cc1sc2c(c1C)C(c1ccc(Cl)cc1)=NN(CCc1ccccc1)c1nnc(C)n1-2 [Example 19, 4-(4-chlorophenyl)-2,3,9-trimethyl-6-phenethyl-6H-thieno[2,3-e][1,2,4]triazolo[3,4-c][1,2,4]triazepine] | 96.6 | 1320
14 | Cc1sc2c(c1C)C(c1ccc(Cl)cc1)=NN(Cc1cccc(F)n1)c1nnc(C)n1-2 [Example 21, 4-(4-chlorophenyl)-6-((6-fluoropyridin-2-yl)methyl)-2,3,9-trimethyl-6H-thieno[2,3-e][1,2,4]triazolo[3,4-c][1,2,4]triazepine] | 100 | 30.3
15 | Cc1sc2c(c1C)C(c1ccc(Cl)cc1)=NN(Cc1ncccc1F)c1nnc(C)n1-2 [Example 23, 4-(4-chlorophenyl)-6-((3-fluoropyridin-2-yl)methyl)-2,3,9-trimethyl-6H-thieno[2,3-e][1,2,4]triazolo[3,4-c][1,2,4]triazepine] | 100 | 158
16 | Cc1sc2c(c1C)C(c1ccc(Cl)cc1)=NN(Cc1ncccc1Cl)c1nnc(C)n1-2 [Example 24, 4-(4-chlorophenyl)-6-((3-chloropyridin-2-yl)methyl)-2,3,9-trimethyl-6H-thieno[2,3-e][1,2,4]triazolo[3,4-c][1,2,4]triazepine] | 100 | 1050
17 | Cc1sc2c(c1C)C(c1ccc(Cl)cc1)=NN(Cc1ccc(F)nc1)c1nnc(C)n1-2 [Example 26, 4-(4-chlorophenyl)-6-((6-fluoropyridin-3-yl)methyl)-2,3,9-trimethyl-6H-thieno[2,3-e][1,2,4]triazolo[3,4-c][1,2,4]triazepine] | 100 | 12.3
18 | Cc1sc2c(c1C)C(c1ccc(N)cc1)=NN(Cc1cncc(O)c1)c1nnc(C)n1-2 [Example 103, 5-((4-(4-aminophenyl)-2,3,9-trimethyl-6H-thieno[2,3-e][1,2,4]triazolo[3,4-c][1,2,4]triazepin-6-yl)methyl)pyridin-3-ol] |  | 289
19 | Cc1sc2c(c1C)C(c1ccc(N)cc1)=NN(Cc1ccc(O)nc1)c1nnc(C)n1-2 [Example 104] |  | 3940
20 | Cc1sc2c(c1C)C(c1ccc(N)cc1)=NN(Cc1cccnc1)c1nnc(CO)n1-2 [Example 105, (4-(4-aminophenyl)-2,3-dimethyl-6-(pyridin-3-ylmethyl)-6H-thieno[2,3-e][1,2,4]triazolo[3,4-c][1,2,4]triazepin-9-yl)methanol] |  | 4830
21 | Cc1c(CO)sc2c1C(c1ccc(N)cc1)=NN(Cc1cccnc1)c1nnc(C)n1-2 [Example 106, (4-(4-aminophenyl)-3,9-dimethyl-6-(pyridin-3-ylmethyl)-6H-thieno[2,3-e][1,2,4]triazolo[3,4-c][1,2,4]triazepin-2-yl)methanol] |  | 1840
22 | Cc1sc2c(c1CO)C(c1ccc(N)cc1)=NN(Cc1cccnc1)c1nnc(C)n1-2 [Example 107, (4-(4-aminophenyl)-2,9-dimethyl-6-(pyridin-3-ylmethyl)-6H-thieno[2,3-e][1,2,4]triazolo[3,4-c][1,2,4]triazepin-3-yl)methanol] |  | 2320
23 | Cc1nnc2n1-c1scc(CCO)c1C(c1ccc(N)cc1)=NN2Cc1cccnc1 [Example 108, 2-(4-(4-aminophenyl)-9-methyl-6-(pyridin-3-ylmethyl)-6H-thieno[2,3-e][1,2,4]triazolo[3,4-c][1,2,4]triazepin-3-yl)ethane-1-ol] |  | 4020
